Test results taken from ChEMBL document CHEMBL3392969, “SAR156497, an exquisitely selective inhibitor of aurora kinases” (J Med Chem, 2015).

Tests used:
[1] = target: Insulin-like growth factor 1 receptor (Homo sapiens, UniProt P08069)
Description: Inhibition of IGF1R (unknown origin)

HeLa = assay: cells; details: Homo sapiens
Description: Antiproliferative activity against human HeLa cells assessed as 14C-thymidine incorporation by Micro-Beta radioactivity counting analysis

Focal adhesion kinase 1 = Focal adhesion kinase 1 (Homo sapiens, UniProt Q05397)
Description: Inhibition of FAK (unknown origin)

MAP kinase p38 = MAP kinase p38 (Homo sapiens, UniProt O15264+Q15759+Q16539+P53778)
Description: Inhibition of p-38 kinase (unknown origin)

Angiopoietin-1 receptor = Angiopoietin-1 receptor (Homo sapiens, UniProt Q02763)
Sequence of Angiopoietin-1 receptor (Q02763 whole entry): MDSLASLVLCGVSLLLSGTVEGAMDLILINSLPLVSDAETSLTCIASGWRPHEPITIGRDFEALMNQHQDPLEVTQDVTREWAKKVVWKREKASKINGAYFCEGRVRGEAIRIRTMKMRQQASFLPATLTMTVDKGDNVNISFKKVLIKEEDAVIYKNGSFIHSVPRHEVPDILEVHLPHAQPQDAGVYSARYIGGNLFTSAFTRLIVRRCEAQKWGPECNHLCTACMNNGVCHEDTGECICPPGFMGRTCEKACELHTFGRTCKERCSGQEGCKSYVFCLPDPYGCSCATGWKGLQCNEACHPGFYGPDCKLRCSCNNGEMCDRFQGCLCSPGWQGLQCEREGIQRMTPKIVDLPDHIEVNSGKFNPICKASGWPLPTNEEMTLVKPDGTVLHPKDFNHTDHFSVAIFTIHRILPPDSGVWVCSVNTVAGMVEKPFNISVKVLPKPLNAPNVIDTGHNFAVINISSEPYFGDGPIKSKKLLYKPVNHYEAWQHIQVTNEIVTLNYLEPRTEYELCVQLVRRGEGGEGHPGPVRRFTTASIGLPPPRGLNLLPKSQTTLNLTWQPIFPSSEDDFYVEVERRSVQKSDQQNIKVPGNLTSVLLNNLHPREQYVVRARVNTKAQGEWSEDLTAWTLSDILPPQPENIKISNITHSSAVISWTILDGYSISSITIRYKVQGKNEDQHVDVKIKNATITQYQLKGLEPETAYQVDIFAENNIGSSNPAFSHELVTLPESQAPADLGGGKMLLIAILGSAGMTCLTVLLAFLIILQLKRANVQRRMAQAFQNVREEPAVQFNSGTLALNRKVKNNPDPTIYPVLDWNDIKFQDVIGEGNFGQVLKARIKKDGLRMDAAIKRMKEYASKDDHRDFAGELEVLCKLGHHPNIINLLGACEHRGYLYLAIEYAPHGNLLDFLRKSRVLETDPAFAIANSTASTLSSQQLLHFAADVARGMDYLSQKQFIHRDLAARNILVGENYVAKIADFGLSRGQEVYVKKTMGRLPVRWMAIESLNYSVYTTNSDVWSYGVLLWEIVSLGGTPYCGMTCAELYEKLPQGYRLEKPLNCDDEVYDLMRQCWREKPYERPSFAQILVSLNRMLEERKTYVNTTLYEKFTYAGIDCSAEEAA
Description: Inhibition of TIE-2 (unknown origin)

Sequence of Focal adhesion kinase 1 (Q05397 whole entry): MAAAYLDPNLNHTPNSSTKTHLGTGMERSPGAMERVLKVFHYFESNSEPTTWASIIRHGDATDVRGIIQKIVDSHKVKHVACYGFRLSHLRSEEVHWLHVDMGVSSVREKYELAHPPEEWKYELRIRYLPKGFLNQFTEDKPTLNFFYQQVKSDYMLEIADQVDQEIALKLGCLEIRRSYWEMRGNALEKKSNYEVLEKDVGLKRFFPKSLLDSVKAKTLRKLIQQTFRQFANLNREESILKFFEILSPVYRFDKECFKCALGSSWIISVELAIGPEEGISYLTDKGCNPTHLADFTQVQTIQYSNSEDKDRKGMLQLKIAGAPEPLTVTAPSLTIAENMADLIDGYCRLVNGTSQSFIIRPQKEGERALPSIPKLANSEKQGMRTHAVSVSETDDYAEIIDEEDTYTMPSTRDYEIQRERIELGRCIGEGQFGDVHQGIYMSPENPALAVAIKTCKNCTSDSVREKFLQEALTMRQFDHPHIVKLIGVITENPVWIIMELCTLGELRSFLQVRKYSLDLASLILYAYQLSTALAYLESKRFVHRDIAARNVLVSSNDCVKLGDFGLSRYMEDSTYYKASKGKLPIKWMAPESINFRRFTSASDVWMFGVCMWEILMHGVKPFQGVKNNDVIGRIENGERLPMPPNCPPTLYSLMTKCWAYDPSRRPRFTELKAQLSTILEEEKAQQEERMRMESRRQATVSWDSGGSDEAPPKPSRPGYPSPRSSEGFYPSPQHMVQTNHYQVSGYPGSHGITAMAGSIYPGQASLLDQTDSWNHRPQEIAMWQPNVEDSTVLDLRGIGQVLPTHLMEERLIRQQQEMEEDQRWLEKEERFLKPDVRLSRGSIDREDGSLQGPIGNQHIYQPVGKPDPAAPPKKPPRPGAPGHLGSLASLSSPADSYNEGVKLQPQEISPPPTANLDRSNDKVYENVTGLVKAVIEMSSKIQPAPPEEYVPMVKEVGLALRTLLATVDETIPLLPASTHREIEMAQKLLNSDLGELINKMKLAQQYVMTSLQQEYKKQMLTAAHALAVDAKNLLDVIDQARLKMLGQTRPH
Sequence of Insulin-like growth factor 1 receptor (P08069 31-736 limits assumed): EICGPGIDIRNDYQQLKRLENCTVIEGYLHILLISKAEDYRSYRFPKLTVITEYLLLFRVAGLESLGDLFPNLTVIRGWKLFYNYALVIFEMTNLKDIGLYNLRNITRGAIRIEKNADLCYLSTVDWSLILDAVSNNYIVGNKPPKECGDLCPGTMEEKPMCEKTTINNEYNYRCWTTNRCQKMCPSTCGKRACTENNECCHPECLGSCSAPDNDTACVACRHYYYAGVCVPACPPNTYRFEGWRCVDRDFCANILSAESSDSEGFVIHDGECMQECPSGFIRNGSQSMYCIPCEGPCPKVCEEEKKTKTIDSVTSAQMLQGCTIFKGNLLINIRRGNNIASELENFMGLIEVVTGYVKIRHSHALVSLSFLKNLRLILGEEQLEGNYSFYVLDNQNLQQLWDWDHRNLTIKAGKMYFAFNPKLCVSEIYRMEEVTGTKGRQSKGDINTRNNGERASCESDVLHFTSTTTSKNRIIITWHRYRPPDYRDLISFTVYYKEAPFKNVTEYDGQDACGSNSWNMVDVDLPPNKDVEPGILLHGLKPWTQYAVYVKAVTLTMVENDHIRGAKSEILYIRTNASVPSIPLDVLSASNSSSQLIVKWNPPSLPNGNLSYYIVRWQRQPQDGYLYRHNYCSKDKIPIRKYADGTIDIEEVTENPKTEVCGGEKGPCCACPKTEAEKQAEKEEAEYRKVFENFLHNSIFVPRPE
Sequence of Insulin-like growth factor 1 receptor (P08069 741-1367 limits assumed): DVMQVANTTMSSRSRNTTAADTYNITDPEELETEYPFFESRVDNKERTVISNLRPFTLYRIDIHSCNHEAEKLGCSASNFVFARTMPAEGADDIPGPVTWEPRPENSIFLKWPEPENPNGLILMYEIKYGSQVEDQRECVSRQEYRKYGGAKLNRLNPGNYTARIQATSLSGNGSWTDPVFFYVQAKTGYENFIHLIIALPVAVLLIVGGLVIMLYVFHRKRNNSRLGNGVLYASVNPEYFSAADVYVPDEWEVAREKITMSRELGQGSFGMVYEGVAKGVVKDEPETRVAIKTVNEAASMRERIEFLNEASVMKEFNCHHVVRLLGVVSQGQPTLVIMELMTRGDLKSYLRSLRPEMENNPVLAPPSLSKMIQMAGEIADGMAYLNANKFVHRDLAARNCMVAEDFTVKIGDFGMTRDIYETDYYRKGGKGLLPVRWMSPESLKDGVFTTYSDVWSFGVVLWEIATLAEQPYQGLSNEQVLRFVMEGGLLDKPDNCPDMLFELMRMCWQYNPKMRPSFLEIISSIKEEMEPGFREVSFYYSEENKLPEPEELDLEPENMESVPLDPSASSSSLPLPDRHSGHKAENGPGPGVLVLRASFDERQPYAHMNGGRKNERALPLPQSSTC

O=C1CNCC2=C1C(c1ccccc1F)c1c[nH]nc1N2 (racemic)
IC50 [1]: > 20 µM
IC50 (HeLa): > 10 µM
IC50 (Focal adhesion kinase 1): > 20 µM
IC50 (MAP kinase p38): > 20 µM
IC50 (Angiopoietin-1 receptor): > 20 µM
